Measured values published in patent US11596716B2, “Compounds and matrices for use in bone growth and repair” (Human BioMolecular Research Institute, priority 2013, dated 2023).

Key:
hMSCs [1] = assay: TLR4/TLR3 mRNA expression ratio by qPCR in hMSCs; assay type: cell-based, human; details: 500 nM, 8 days
Excerpt: TLRs are modulators of hMSC differentiation. TLRs (TLR1-10) mRNA could be detected by qPCR in hMSCs. TLR4 is a biomarker for osteogenesis and TLR3 is a biomarker for adipogenesis. […]

Wnt transcription = assay: WNT transcriptional reporter assay (Super(8×)TOPflash luciferase, HEK293T cells); assay type: cell-based; details: Homo sapiens, HEK-293T, Wnt3A-expressing vector, 20 hrs, relative to cells treated with DMSO alone, read-out: Wnt transcription potency
Excerpt: Commercially available Super(8×)TOPflash vector driven by a (7×) TCF-firefly luciferase response element was transiently transfected into HEK293T cells, together with a TK-driven Renilla luciferase plasmid as an internal control to normalize the luminescence signal and a Wnt3A-expressing vector as the source of pathway activation. HEK293T cells were transfected with plasmids in DMEM plus 10% fetal bovine serum (FBS) for 8 hr, replated to 96-well plates in DMEM plus 10% FBS followed by treatment with compounds (1.6 nM to 5 M) (DMSO final concentration is 0.5%) for 20 hrs. Firefly and Renilla luciferase activities were measured and normalized by the Renilla luciferase values.

hMSCs [2] = assay: Transwell migration of hMSCs to calcium phosphate matrix; assay type: cell-based, human
Protocol: Human MSC migration to the site of bone injury is an important part of the repair process. […] After 8 hrs, compounds were washed off the cells and cells placed in a traditional transwell migration system. The top reservoir contained serum-free DMEM and the bottom reservoir contained DMEM plus 2% FBS. After incubation overnight, non-migrated cells were removed, migrated cells (stuck in the bottom chamber) were then fixed with 70% EtOH (40 mins) and total migrated cells were counted under a microscope after staining with 1 mg/mL of crystal violet (1 hr). hMSCs treated with compound 2 (500 nM, 8 hr) induced a 10-fold greater cell migration to the matrix than DMSO-pre-treated cells under the conditions described above. In a separate experiment, matrix that was pre-coated with compound 4 (as prepared in Example 5) was placed in the bottom chamber and migration of hMSCs from the top chamber was evaluated. Compound 4-coated matrix induced a 2-fold increase in cell migration to the matrix compared to DMSO-treated cells.
hMSC migration was analyzed by using calcium phosphate matrix that had been pre-adsorbed with compounds 1 or 2 (500 nM, as described in Example 5) and studied in the transwell system (2% serum, described above). Compound 1 and 2 induced 3.5-fold and 1.9-fold more cell migration than non-coated ceramic. While non-limiting, these examples show the utility of the approach for increased cell migration and localization to the calcium phosphate ceramic matrix when compounds of the disclosure are present. Use of compounds of Formula II, IV, and VI to pre-coat the ceramic and also pretreat the cells is also of utility.

[3] = test system: cells released from demineralized allogeneic bone chips; assay: Allograft-derived cells cultured with compound and TCP matrix; assay type: cell-based; details: 500 nM, TCP matrix 5 mg/mL, 8 days
Protocol: Demineralized allogeneic bone chips were thawed at 37° C. quickly with gentle agitation, washed with Dulbecco's PBS (DPBS) and centrifuged at 600×g for 5 min at room temperature. The material was digested with a collagenase and the mixture was filtered through a 100 µm cell strainer and the remaining bone fragments were rinsed with DPBS. The released cells were centrifuged at 1,200× rpm for 5 min at room temperature, resuspended and plated in 10 mL α-MEM media plus 20% FBS plus 1×Glutmax. After three days at 37° C. and 5% CO2, the TCP matrix (5 mg/mL) was added followed by compound 1 (500 nM) (or other compounds of Formula II, IV or VI) and the cell culture media was replaced every two days with fresh media-containing compound for 8 days. Cells were harvested after 8 days for determination of ALP activity, osteogenic mRNA biomarkers (i.e., VDR and collagen I, and cell proliferation. Cell proliferation increased 2.5-fold. VDR and collagen/mRNA expression increased 4.5-fold and 2.2-fold, respectively. Similar to isolated hMSCs in the presence of matrix, allograft-derived cells also respond to the presence of compounds and matrix to afford osteogenesis. The cells can be used in implantation as described in Examples 19 and 20.

hMSCs [4] = assay: Oil Red O staining (adipogenesis) in hMSCs; assay type: cell-based, human; details: for effect on adipogenesis, densitometry of cell culture images: 500 nM every 48 hr for 25 days, TCP 5 mg/mL; for adipogenesis (Oil Red O staining) compared to vehicle-treated hMSCs: presence or absence of matrix, 25 days
Protocol: Oil Red O Staining: Oil Red O (ORO, 1-(2,5-dimethyl-4-(2-5-dimethylphenyl) phenyldiazenyl) azonapthalen-2-ol) was used to stain for the presence of adipocytes. An ORO solution was prepared to afford a 0.03% final concentration in dH2O. hMSCs were cultured as described above for Alizarin Red Staining (Example 7) in 48-well plates. On day 25 of cell incubation, cells were fixed with 4% formaldehyde for 40 mins at room temperature. Cells were stained for 1 hr followed by washes with dH2O (1 mL) until the wash water was clear (without red elutes). Cell culture images were taken under a microscope and quantified by densitometry.

[5] = Prodrug hydrolysis in phosphate buffer determined by HPLC; assay type: physicochemical
Protocol: 3 provided 54 (described in Example 3) through prodrug hydrolysis as determined by HPLC.
Within 5 minutes, the hydrolysis of 3 produced compound 84 (described in Example 3) that is the mono hydrolysis product of the bis(amino acid) pro-drug 3. Within 15 minutes, compound 54 that is the fully hydrolyzed product from 3 (and 84) was prominent in solution. By 77 minutes, most of 3 was hydrolyzed while compound 84 and compound 54 persisted.

Solubility in water = assay type: physicochemical

In the case of `CC(=O)N1c2ccc(C)cc2[C@H](Nc2ccc(C)cc2)C[C@@H]1C` (relative stereo) [Compound 1, cis-1-acetyl-2,6-dimethyl-N-(p-methylphenyl)-1,2,3,4-tetrahydroquinolin-4-amine], the “TLR4/TLR3 ratio, compound alone” value (hMSCs [1]) is reported as “modest increase”, the EC50 (Wnt transcription) is reported as less than 15 nM and the “cell migration to matrix pre-adsorbed with compound versus non-coated ceramic” value (hMSCs [2]; 500 nM, transwell, 2% serum) is reported as 3.5 fold. For the same compound, the Cell proliferation increase [3] was 2.5 fold, the “VDR mRNA expression increase” value [3] was 4.5 fold and the collagen/mRNA expression increase [3] was 2.2 fold.
With `CC(C)[C@H](N)C(=O)Oc1ccc(C=CC(=O)C=C(O)C=Cc2ccc(OC(=O)[C@@H](N)C(C)C)cc2)cc1` [Compound 3, (2S,2′S)—O,O′-(3-hydroxy-5-oxohepta-1,3,6-triene-1,7-diyl)bis(4,1-phenylene) bis(2-amino-3-methylbutanoate)] the “TLR4/TLR3 ratio, compound alone” value (hMSCs [1]) was “modest increase”, the “effect on adipogenesis, densitometry of cell culture images” value (hMSCs [4]) was “modestly inhibitory to adipogenesis” and the “adipogenesis (Oil Red O staining) compared to vehicle-treated hMSCs” value (hMSCs [4]) was “no increase in adipogenesis”. The persistence of compound ([5]; pH 6.5 PBS) was no less than 77 min, the “time until compound 54 (fully hydrolyzed product) was prominent in solution” value ([5]; pH 6.5 PBS) was no more than 15 min and the “time until hydrolysis produced compound 84 (mono hydrolysis product)” value ([5]; pH 6.5 PBS) was no more than 5 min. The “persistence for over an hour in pH 7.5 buffer” value ([5]; pH 7.5 buffer, versus pH 6.5 phosphate buffer (10 mM)) was “not in pH 7.5 buffer” and the solubility in water (Solubility in water) was “greater than 10 mg/mL”.
In the case of `CC(C)[C@H](N)C(=O)Oc1ccc(/C=C/C(O)=C2\CCC/C(=C\c3ccc(OC(=O)[C@@H](N)C(C)C)cc3)C2=O)cc1` [Compound 4, 4-((1E,3Z)-3-(3-((E)-4-((L-valyl)oxy)benzylidene)-2-oxocyclohexylidene)-3-hydroxyprop-1-en-1-yl)phenyl L-valinate], the “effect on adipogenesis, densitometry of cell culture images” value (hMSCs [4]) is reported as “modestly inhibitory to adipogenesis”, the “adipogenesis (Oil Red O staining) compared to vehicle-treated hMSCs” value (hMSCs [4]) is reported as “no increase in adipogenesis” and the “cell migration to compound-coated matrix compared to DMSO-treated cells” value (hMSCs [2]; matrix pre-coated with compound in bottom chamber) is reported as 2 fold.
